From patent US9936701B2, “Herbicidal compounds” (Syngenta Participations AG, priority 2013, dated 2018)

What was measured:
[1] = system: a variety of test species; experiment: Post-emergence herbicidal activity (glasshouse, sprayed after 8 days cultivation, evaluated after 13 days); type: in vivo; parameters: key: 5=total damage to plant; 0=no damage to plant; conditions: rate 1000 g/Ha, scale 0-5
In short: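 Damage rating 0 (none) to 5 (total), assessed 13 days after spraying. Plants received the compound in acetone/water 50:50 with 0.5% Tween 20 at 8 days post-sowing, then were kept at 24/16 °C, 14 h photoperiod, 65% RH.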

[2] = system: a variety of test species; experiment: Pre-emergence herbicidal activity (glasshouse, sprayed one day after sowing, evaluated after 13 days); type: in vivo; parameters: key: 5=total damage to plant; 0=no damage to plant; conditions: application pre-emergence, rate 1000 g/Ha, scale 0-5
In short: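 Damage rated 13 days post-treatment on a 0-5 scale, 5 meaning total plant damage. Pots were sprayed pre-emergence, one day after sowing, with an acetone/water-derived aqueous spray containing 0.5% Tween 20. Plants grew under 14 h light, 65% humidity, 24/16 °C, watered twice daily.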

| Compound | ABUTH (Abutilon theophrasti) damage score, application post-emergence [1] | ALOMY (Alopecurus myosuroides) damage score, application post-emergence [1] | AMARE (Amaranthus retroflexus) damage score, application post-emergence [1] | ECHCG (Echinochloa crus-galli) damage score, application post-emergence [1] | SETFA (Setaria faberi) damage score, application post-emergence [1] | ZEAMX (Zea mays) damage score, application post-emergence [1] | Pre-emergence herbicidal damage score, ABUTH [2] | Pre-emergence herbicidal damage score, ALOMY [2] | Pre-emergence herbicidal damage score, AMARE [2] | Pre-emergence herbicidal damage score, ECHCG [2] | Pre-emergence herbicidal damage score, SETFA [2] | Pre-emergence herbicidal damage score, ZEAMX [2] | melting point [°C] |
| --- | --- | --- | --- | --- | --- | --- | --- | --- | --- | --- | --- | --- | --- |
| CCC(C)(C)c1onc(N2C(=O)C(C)=C(OC)C2O)c1C#N (centres unmarked) [G5] | 5 | 5 | 5 | 5 | 5 | 3 | 5 | 3 | 5 | 5 | 5 | 2 | 122 to 124 |
| COC1=C(C)C(=O)N(c2cc(C(C)(C)C#N)on2)C1O (centres unmarked) [G6] | 5 | 5 | 5 | 5 | 5 | 5 | 5 | 4 | 5 | 4 | 5 | 4 | 121 to 123 |
